According to patent publication US11285142B2, “Compositions and methods for identifying and treating dystonia disorders” (DUKE UNIVERSITY, priority 2015, dated 2022):
pEC50: −log10 of the molar value. Entries after “also recorded” stand apart in the source; their conditions may differ. Peptide text beside a SMILES is read from it. * marks the point of attachment. Cbz = O=C(OCc1ccccc1)*

Columns and labels:
[1] = system: Flp-In T-REx 293 cells expressing delta-E Torsin1a; experiment: Cytotoxicity (cell count, cellular morphology) in the Torsin1a assay cell line; assay type: cell-based, human; conditions: at effective concentrations
Method: (§1) In order to test this model directly, the delta-E Torsin1a cell line was treated with compounds targeting the eIF2-alpha signaling pathway (FIG. 2). […] The following day, serial drug dilutions were prepared at 2× final concentration in assay media containing 10 μg/mL tetracycline and 30 μL of the drug/tetracycline mixture was added to the appropriate wells, while control wells received 30 μL of assay media alone or assay media+10 μg/mL tetracycline (final tetracycline concentration for all wells except negative controls: 5 μg/mL). Cells were then incubated at 37° C./5% CO^2 for 48 hours and fixed, permeabilized, Hoechst stained, and imaged as described above. The range of the Torsin1a localization effect was normalized to the percentage of cells with puncta in vehicle-treated delta-E cell line as the maximum and that in WT cell line as the minimum (FIG. 2, panels c-h). Cell count and EGFP-Torsin1a expression were normalized to their respective values in the vehicle-treated delta-E cell line as the maximum. All dose response data are the average of 4 independent experiments per dose. Untreated control data used for normalization are the average of 24 independent experiments.
Efficacy is calculated as the magnitude of the pathology correction relative to the mutant Torsin1a pathology. For example an efficacy=−100% would be equivalent to the WT TorsinA phenotype, and 0% would be equivalent to the Mutant TorsinA phenotype. CCv2 refers to the dose response Curve Class annotation, and AC refers to Active Concentration.

[2] = system: homozygous DYT1 (delta-E Torsin1a) knock-in mice; experiment: Perinatal survival of homozygous DYT1 knock-in mice after in utero exposure; assay type: in vivo, mouse
Method: The findings above support a role for the eIF2-alpha signaling pathway in normalizing in vitro cellular phenotypes related to the DYT1 genotype. Next, the effect of targeting eIF2-alpha signaling on the deleterious consequences of the DYT1 TorsinA mutation was determined in vivo. Etiological mouse models of DYT1 dystonia have not had robust dystonic phenotypes. (Tanabe, L. M., et al., (2012) PloS One 7, e32245; Camargos, S. et al., (2008) Lancet. Neurol. 7, 207-15; Seibler, P. et al. (2008) Lancet. Neurol. 7, 380-1.) Nonetheless, another deleterious genotype-dependent effect of the mutation on the animal-neonatal lethality of homozygous delGAG knock-in mice—facilitated interrogation of the impact of eIF2-alpha targeting in vivo (FIG. 4a). (Seibler, P. et al. (2008) Lancet. Neurol. 7, 380-1; Goodchild, R. E., et al, (2005) Neuron 48, 923-32.)
Pairs of heterozygous delta-E Torsin1a knock-in breeders (courtesy of Dr. W. Dauer, University of Michigan) were randomly assigned to vehicle or salubrinal treatment groups. Starting 10 days after breeding cages were established, each female mouse was given a daily subcutaneous injection of vehicle or salubrinal at approximately 6 p.m. Cages were checked for new pups three times per day: morning (˜8 a.m.), early afternoon (˜2 p.m.), and during injections (˜6 p.m.). In order to minimize stress and the possibility of litter abandonment, mice with newborn pups were not given injections. Newborn pups were identified by marking limbs with a permanent laboratory marker, and tail samples were taken for genotyping at P0. At approximately P0.5, cages were checked again, and the status of each pup was recorded. If pups were first observed at the 8 am check, the 2 pm check was considered P0.5. If pups were first observed at the 2 pm or 6 pm checks, an additional check was performed at approximately midnight, and considered P0.5. Mortality was also tracked the following day, after which time identifying marks were predominately washed off or obscured by fur. […]

[3] = system: delta-E Torsin1a localization in Flp-In T-REx 293 cells expressing EGFP-delta-E Torsin1a; experiment: delta-E Torsin1a mis-localization assay (high-content imaging, % cells with EGFP puncta); assay type: cell-based, human; conditions: delta-E cell line; for percentage of cells with punctate EGFP-Torsin1a signal: MG132 10 μM, PBA 20 mM
Method: (§2) To limit variation in expression levels associated with random integration or transient expression, single copies of either WT or delta-E human TOR1A cDNAs with N-terminal EGFP fusions were inserted at the FRT site in Flp-In™ T-Rex™ 293 cells (Thermo Fisher Scientific #R780-07) via flippase recombinase-mediated cassette exchange according to the manufacturer's recommended protocols.
The cells were maintained at 37° C./5% CO2. All experiments were performed on cells with fewer than 5 passages.
Torsin1a expression was also controlled by tetracycline induction to avoid selective pressure modifying the cellular phenotypes. […] The mutant phenotype was measured as the percentage of cells with one or more EGFP puncta using automated high-content imaging analysis (see infra).
The image analysis algorithm was developed using the Cellomics ArrayScan V CompartmentAnalysisV2 protocol. Hoechst's nuclear staining (Ch1: excitation 350 nm; emission 461 nm) was used for focusing and for cell identification by nuclear size, shape, and intensity. […] Detected cells were gated according to nuclear area, length-to-width ratio, and perimeter-to-area ratio. For the purpose of analysis, cell bodies were defined by a radius of 10 μm from the outer edge of the defined nucleus. Overlapping cells were automatically segmented according to the Cellomics ArrayScanV CompartmentAnalysisV2 object segmentation feature. EGFP fluorescence (Ch2: excitation 488 nm; emission 509 nm) was used for puncta detection. […] Torsin1a puncta were identified using the spot detection feature of the Compartmental AnalysisV2 protocol. The percentage of cells containing one or more puncta was used as the primary metric in this assay.
as §1

[4] = system: WT Torsin1a localization in Flp-In T-REx 293 cells expressing EGFP-WT Torsin1a; experiment: Torsin1a localization assay in WT Torsin1a-expressing assay cell line; assay type: cell-based, human; conditions: WT cell line; MG132 10 μM, PBA 20 mM
Text: To develop an assay capable of detecting conditions that correct a dystonia cellular phenotype, two human cell lines were generated that stably expressed EGFP-tagged human wild-type Torsin 1A, or delta-E Torsin1a, from a single cDNA copy integrated at a defined genomic site (FIG. 1, panel 1).
as §2, with “protocols. This system includes an inducible expression feature (TetON) that avoids selective pressure for potential toxic effects of chronic expression of mutant proteins (FIG. 1, panel 1). […]” for “protocols.”
This approach provides control over expression levels, avoiding the wide variation typically seen with random genomic integration or transient expression approaches. […] The mutant phenotype was measured as the percentage of cells with one or more EGFP puncta using automated high-content imaging analysis (see infra).
Development and validation of the high-content image analysis and assay performance under high-throughput screening conditions is presented in FIG. 9. […] Automated exposure times for each plate were determined by setting a target saturation of 25% in channel 1 in wells containing tetracycline-induced delta-E cells. Detected cells were gated according to nuclear area, length-to-width ratio, and perimeter-to-area ratio. […] EGFP fluorescence (Ch2: excitation 488 nm; emission 509 nm) was used for puncta detection. Automated exposure times for each plate were determined by setting a target saturation of 35% in channel 2 in wells containing induced delta-E cells. […]

O=C(/C=C/c1ccccc1)NC(NC(=S)Nc1cccc2cccnc12)C(Cl)(Cl)Cl (centres unmarked) [Salubrinal]
toxicity (cell count, cellular morphology; in words) [1]: without modifying steady-state EGFP-Torsin1a levels or significant toxicity
perinatal survival / mortality of homozygous delta-E/delta-E pups ([2]; 3.3 mg/kg subcutaneous daily to pregnant dams from about embryonic day 10 through delivery, vs vehicle): dramatically reduced the mortality; also recorded: improves perinatal survival
mortality of wildtype or heterozygote pups ([2]; 3.3 mg/kg subcutaneous daily to pregnant dams, treatment vs control): no mortality differences
homozygous delta-E Torsin1a pups that survived through the second postnatal day ([2]; in utero exposure, no vehicle-treated homozygous pups survived the first postnatal day): two
pEC50 ([3]; Homo sapiens, Flp-In-T-REx-293, 48 hours, dose response, read-out: EC50 of normalization of delta-E Torsin1a localization): 5.67
effect on delta-E Torsin1a localization (in words) ([3]; dose response): robust dose-dependent normalization
efficacy on delta-E Torsin1a localization ([3]; normalized to vehicle delta-E (max) and WT (min)): 66.4%

O=C(O)CCCc1ccccc1 [PBA, phenylbutyric acid]
percentage of cells with punctate EGFP-Torsin1a signal [4]: ameliorated the burden of cells with punctate pathology
percentage of cells with punctate EGFP-Torsin1a signal [3]: ameliorated the burden of cells with punctate pathology

CC(C)C[C@@H](C=O)NC(=O)[C@H](CC(C)C)NC(=O)[C@H](CC(C)C)NC(=O)OCc1ccccc1 [MG132] (Cbz-Leu-Leu-Leu-aldehyde)
percentage of cells with punctate EGFP-Torsin1a signal [4]: significantly increased
percentage of cells with punctate EGFP-Torsin1a signal [3]: significantly increased
